In patent publication US12091426B2, “Bifunctional degraders of hematopoietic progenitor kinase and therapeutic uses thereof” (Nurix Therapeutics, Inc., priority 2021, dated 2024):

Target: T1, HPK1 (Homo sapiens, UniProt Q92918)
T1 construct: A HiBiT tag was introduced by CRISPR on the N terminus of HPK1 in Jurkat cells; host or cells: Jurkat cells (ATCC TIB-152), monoclonal line with CRISPR knock-in of HiBiT at the endogenous HPK1 locus
Experiment: HPK1 Cellular HiBit Degradation Assay
Assay type: cell-based
Conditions: HiBiT HPK1 Jurkat cells, 24 hrs; for DC50: concentration at which 50% of HPK1 was remaining, read-out: DC50 Category; for Dmax: Jurkat, read-out: Dmax Category
Procedure, shortened: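 HiBiT-HPK1 Jurkat (CRISPR, N-term tag), 3×10^4 cells/well, RPMI 1640 + 10% FBS; CTMs 10 uM–0.1 nM, 11 pts; 24 hrs, 37° C/5% CO2; lytic HiBiT luminescence; % remaining vs DMSO, parental background subtracted; 4-parameter fit → DC50, Dmax.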

[1] = maximum degradation vs DMSO vehicle control

T1 sequence (Q92918 whole entry): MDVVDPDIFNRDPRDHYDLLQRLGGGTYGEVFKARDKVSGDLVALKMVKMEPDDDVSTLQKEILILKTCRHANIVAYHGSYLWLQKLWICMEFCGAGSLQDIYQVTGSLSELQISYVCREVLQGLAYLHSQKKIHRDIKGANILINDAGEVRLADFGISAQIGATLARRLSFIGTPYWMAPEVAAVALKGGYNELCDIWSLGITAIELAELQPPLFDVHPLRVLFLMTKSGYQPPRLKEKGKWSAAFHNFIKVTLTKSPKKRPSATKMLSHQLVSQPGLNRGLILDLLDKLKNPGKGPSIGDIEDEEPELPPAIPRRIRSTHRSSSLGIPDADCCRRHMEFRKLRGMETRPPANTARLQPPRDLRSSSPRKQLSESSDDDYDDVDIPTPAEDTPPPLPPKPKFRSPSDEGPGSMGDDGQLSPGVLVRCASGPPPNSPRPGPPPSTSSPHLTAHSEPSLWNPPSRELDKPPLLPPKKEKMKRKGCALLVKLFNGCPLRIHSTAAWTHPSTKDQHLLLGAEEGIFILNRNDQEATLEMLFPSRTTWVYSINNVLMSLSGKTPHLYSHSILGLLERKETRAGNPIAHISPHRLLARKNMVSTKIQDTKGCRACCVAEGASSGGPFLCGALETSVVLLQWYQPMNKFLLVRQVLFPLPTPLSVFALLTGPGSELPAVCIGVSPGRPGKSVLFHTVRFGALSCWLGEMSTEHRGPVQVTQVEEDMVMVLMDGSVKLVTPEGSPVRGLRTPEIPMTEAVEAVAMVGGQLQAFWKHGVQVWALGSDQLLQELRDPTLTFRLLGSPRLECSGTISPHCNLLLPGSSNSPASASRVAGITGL

Q: With `CC(C)n1cnc2cc(-c3ccc4c(c3)N([C@H]3C[C@@H](N5CCCCC5)C3)C(=O)C43CCN(C(=O)C4CCN(C(=O)C5CCN(c6ccc(C7CCC(=O)NC7=O)cn6)CC5)CC4)CC3)nc(Nc3ccncc3F)c21` (mixture of isomers) [Example 77, (3RS)-3-[6-(4-{4-[(6-{4-[(3-Fluoropyridin-4-yl)amino]-3-(propan-2-yl)-3H-imidazo[4,5-c]pyridin-6-yl}-2-oxo-1-[(1S,3S)-3-(piperidin-1-yl)cyclobutyl]-1,2-dihydrospiro[indole-3,4′-piperidin]-1′-yl)carbonyl]piperidine-1-carbonyl}piperidin-1-yl)pyridin-3-yl]piperidine-2,6-dione] as the compound, how does the DC50 read?
A: The DC50 was less than 100 nM.

Q: What about the Dmax [1] of the same compound?
A: The Dmax was 70 to 85%.

Q: `CC(C)n1cnc2cc(-c3ccc4c(c3)N([C@H]3C[C@@H](N5CCCCC5)C3)C(=O)C43CCN(C(=O)C4CCN(C(=O)C5CCN(c6ccc(C7CCC(=O)NC7=O)cn6)CC5)CC4)CC3)nc(NC3CCOCC3)c21` (mixture of isomers) [Example 78, (3RS)-3-[6-(4-{4-[(6-{4-[(oxan-4-yl)amino]-3-(propan-2-yl)-3H-imidazo[4,5-c]pyridin-6-yl}-2-oxo-1-[(1S,3S)-3-(piperidin-1-yl)cyclobutyl]-1,2-dihydrospiro[indole-3,4′-piperidin]-1′-yl)carbonyl]piperidine-1-carbonyl}piperidin-1-yl)pyridin-3-yl]piperidine-2,6-dione] was tested. Which DC50 did it give?
A: The DC50 was less than 100 nM.

Q: What about the Dmax [1] of the same compound?
A: Its Dmax is 50 to 70%.

Q: How did the DC50 turn out when `CC(C)n1cnc2cc(-c3ccc4c(c3)N([C@H]3C[C@@H](N5CCCCC5)C3)C(=O)C43CCN(C(=O)C4CCN(C(=O)C5CCN(c6ccc(C7CCC(=O)NC7=O)nc6)CC5)CC4)CC3)nc(Nc3ccncc3F)c21` (mixture of isomers) [Example 82, (3RS)-3-[5-(4-{4-[(6-{4-[(3-fluoropyridin-4-yl)amino]-3-(propan-2-yl)-3H-imidazo[4,5-c]pyridin-6-yl}-2-oxo-1-[(1S,3S)-3-(piperidin-1-yl)cyclobutyl]-1,2-dihydrospiro[indole-3,4′-piperidin]-1′-yl)carbonyl]piperidine-1-carbonyl}piperidin-1-yl)pyridin-2-yl]piperidine-2,6-dione] was run?
A: Its DC50 is less than 100 nM.

Q: And the Dmax [1]?
A: Its Dmax is 70 to 85%.

Q: For `CC(C)n1cnc2cc(-c3ccc4c(c3)N([C@H]3C[C@@H](N5CCCCC5)C3)C(=O)C43CCN(C(=O)C4CCN(C(=O)C5CCN(c6ccc(C(=O)NC7CCC(=O)NC7=O)nc6)CC5)CC4)CC3)nc(Nc3ccccc3F)c21` (mixture of isomers) [Example 83, N-[(3RS)-2,6-dioxopiperidin-3-yl]-5-(4-{4-[(6-{4-[(2-fluorophenyl)amino]-3-(propan-2-yl)-3H-imidazo[4,5-c]pyridin-6-yl}-2-oxo-1-[(1S,3S)-3-(piperidin-1-yl)cyclobutyl]-1,2-dihydrospiro[indole-3,4′-piperidin]-1′-yl)carbonyl]piperidine-1-carbonyl}piperidin-1-yl)pyridine-2-carboxamide], which DC50 is on record?
A: The DC50 was 100 to 500 nM.

Q: And the Dmax [1]?
A: Its Dmax is 50 to 70%.

Q: Which DC50 does the source give for `CC(C)n1cnc2cc(-c3ccc4c(c3)N([C@H]3C[C@@H](N5CCCCC5)C3)C(=O)C43CCN(C(=O)C4CCN(C(=O)C5CCN(c6ccc7c(c6)C(=O)N(C6CCC(=O)NC6=O)C7=O)CC5)CC4)CC3)nc(NC3CC3)c21` (mixture of isomers) [Example 86, 5-{4-[4-({6-[4-(cyclopropylamino)-3-(propan-2-yl)-3H-imidazo[4,5-c]pyridin-6-yl]-2-oxo-1-[(1S,3S)-3-(piperidin-1-yl)cyclobutyl]-1,2-dihydrospiro[indole-3,4′-piperidin]-1′-yl}carbonyl)piperidine-1-carbonyl]piperidin-1-yl}-2-[(3RS)-2,6-dioxopiperidin-3-yl]-2,3-dihydro-1H-isoindole-1,3-dione] here?
A: The DC50 was 100 to 500 nM.

Q: What about the Dmax [1] of the same compound?
A: Its Dmax is 70 to 85%.

Q: How did the DC50 turn out when `CC(C)n1cnc2cc(-c3ccc4c(c3)N([C@H]3C[C@@H](N5CCCCC5)C3)C(=O)C43CCN(C(=O)C4CCN(C(=O)C5CCN(c6ccc7c(c6)C(=O)N(C6CCC(=O)NC6=O)C7=O)CC5)CC4)CC3)nc(Nc3ccccc3F)c21` (mixture of isomers) [Example 87, 2-[(3RS)-2,6-dioxopiperidin-3-yl]-5-(4-{4-[(6-{4-[(2-fluorophenyl)amino]-3-(propan-2-yl)-3H-imidazo[4,5-c]pyridin-6-yl}-2-oxo-1-[(1S,3S)-3-(piperidin-1-yl)cyclobutyl]-1,2-dihydrospiro[indole-3,4′-piperidin]-1′-yl)carbonyl]piperidine-1-carbonyl}piperidin-1-yl)-2,3-dihydro-1H-isoindole-1,3-dione] was run?
A: The DC50 was less than 100 nM.

Q: And the Dmax [1]?
A: The Dmax was 70 to 85%.

Q: For `CC(C)n1cnc2cc(-c3ccc4c(c3)N(C3CC(N5CCCCC5)C3)C(=O)C43CCN(C(=O)C4CCN(C(=O)C5CCN(c6ccc7c(c6)C(=O)N(C6CCC(=O)NC6=O)C7=O)CC5)CC4)CC3)nc(Nc3ccncc3F)c21` (racemic) [Example 88, 2-[(3RS)-2,6-dioxopiperidin-3-yl]-5-(4-{4-[(6-{4-[(3-Fluoropyridin-4-yl)amino]-3-(propan-2-yl)-3H-imidazo[4,5-c]pyridin-6-yl}-2-oxo-1-[(1S,3S)-3-(piperidin-1-yl)cyclobutyl]-1,2-dihydrospiro[indole-3,4′-piperidin]-1′-yl)carbonyl]piperidine-1-carbonyl}piperidin-1-yl)-2,3-dihydro-1H-isoindole-1,3-dione], which DC50 is on record?
A: The DC50 was less than 100 nM.

Q: What about the “Dmax Category” value [1] of the same compound?
A: The value was “C (C: >50%-<70%)”.

Q: Which results are given for `CC(C)n1cnc2cc(-c3ccc4c(c3)N([C@H]3C[C@@H](N5CCCCC5)C3)C(=O)C43CCN(C(=O)C4CCN(C(=O)C5CCN(c6ncc(C7CCC(=O)NC7=O)cn6)CC5)CC4)CC3)nc(NC3CC3)c21` (mixture of isomers) [Example 89, (3RS)-3-(2-{4-[4-({6-[4-(cyclopropylamino)-3-(propan-2-yl)-3H-imidazo[4,5-c]pyridin-6-yl]-2-oxo-1-[(1S,3S)-3-(piperidin-1-yl)cyclobutyl]-1,2-dihydrospiro[indole-3,4′-piperidin]-1′-yl}carbonyl)piperidine-1-carbonyl]piperidin-1-yl}pyrimidin-5-yl)piperidine-2,6-dione]?
A: DC50: 100 to 500 nM; Dmax [1]: 50 to 70%

Q: For `CC(C)n1cnc2cc(-c3ccc4c(c3)N([C@H]3C[C@@H](N5CCCCC5)C3)C(=O)C43CCN(C(=O)C4CCN(C(=O)C5CCN(c6ncc(C7CCC(=O)NC7=O)cn6)CC5)CC4)CC3)nc(Nc3ccncc3F)c21` (mixture of isomers) [Example 91, (3RS)-3-[2-(4-{4-[(6-{4-[(3-Fluoropyridin-4-yl)amino]-3-(propan-2-yl)-3H-imidazo[4,5-c]pyridin-6-yl}-2-oxo-1-[(1S,3S)-3-(piperidin-1-yl)cyclobutyl]-1,2-dihydrospiro[indole-3,4′-piperidin]-1′-yl)carbonyl]piperidine-1-carbonyl}piperidin-1-yl)pyrimidin-5-yl]piperidine-2,6-dione], which DC50 is on record?
A: Its DC50 is 100 to 500 nM.

Q: What about the Dmax [1] of the same compound?
A: Its Dmax is 50 to 70%.

Q: For `CC(C)n1cnc2cc(-c3ccc4c(c3)N([C@H]3C[C@@H](N5CCCCC5)C3)C(=O)C43CCN(C(=O)C4CCN(C(=O)CC5CCN(c6ccc(C7CCC(=O)NC7=O)cn6)CC5)CC4)CC3)nc(NC3CC3)c21` (mixture of isomers) [Example 93, (3RS)-3-[6-(4-{2-[4-({6-[4-(cyclopropylamino)-3-(propan-2-yl)-3H-imidazo[4,5-c]pyridin-6-yl]-2-oxo-1-[(1S,3S)-3-(piperidin-1-yl)cyclobutyl]-1,2-dihydrospiro[indole-3,4′-piperidin]-1′-yl}carbonyl)piperidin-1-yl]-2-oxoethyl}piperidin-1-yl)pyridin-3-yl]piperidine-2,6-dione], which DC50 is on record?
A: Its DC50 is less than 100 nM.

Q: What about the Dmax [1] of the same compound?
A: Its Dmax is 50 to 70%.

Q: For `CC(C)n1cnc2cc(-c3ccc4c(c3)N([C@H]3C[C@@H](N5CCCCC5)C3)C(=O)C43CCN(C(=O)C4CCN(C(=O)CN5CCN(c6ccc(C7CCC(=O)NC7=O)cn6)CC5)CC4)CC3)nc(NC3CC3)c21` (mixture of isomers) [Example 94, (3RS)-3-[6-(4-{2-[4-({6-[4-(cyclopropylamino)-3-(propan-2-yl)-3H-imidazo[4,5-c]pyridin-6-yl]-2-oxo-1-[(1S,3S)-3-(piperidin-1-yl)cyclobutyl]-1,2-dihydrospiro[indole-3,4′-piperidin]-1′-yl}carbonyl)piperidin-1-yl]-2-oxoethyl}piperazin-1-yl)pyridin-3-yl]piperidine-2,6-dione], which DC50 is on record?
A: The DC50 was less than 100 nM.

Q: What about the Dmax [1] of the same compound?
A: The Dmax was 50 to 70%.

Q: How did the DC50 turn out when `CC(C)n1cnc2cc(-c3ccc4c(c3)N([C@H]3C[C@@H](N5CCCCC5)C3)C(=O)C43CCN(C(=O)C4CCN(C(=O)CN5CCN(c6ccc(C7CCC(=O)NC7=O)cn6)CC5)CC4)CC3)nc(Nc3ccccc3F)c21` (mixture of isomers) [Example 95, (3RS)-3-{6-[4-(2-{4-[(6-{4-[(2-fluorophenyl)amino]-3-(propan-2-yl)-3H-imidazo[4,5-c]pyridin-6-yl}-2-oxo-1-[(1S,3S)-3-(piperidin-1-yl)cyclobutyl]-1,2-dihydrospiro[indole-3,4′-piperidin]-1′-yl)carbonyl]piperidin-1-yl}-2-oxoethyl)piperazin-1-yl]pyridin-3-yl}piperidine-2,6-dione] was run?
A: The DC50 was less than 100 nM.

Q: And the Dmax [1]?
A: The Dmax was 70 to 85%.

Q: `CC(C)n1cnc2cc(-c3ccc4c(c3)N([C@H]3C[C@@H](N5CCCCC5)C3)C(=O)C43CCN(C(=O)C4CCN(C(=O)CN5CCN(c6ccc(C7CCC(=O)NC7=O)cn6)CC5)CC4)CC3)nc(Nc3ccncc3F)c21` (mixture of isomers) [Example 96, (3RS)-3-{6-[4-(2-{4-[(6-{4-[(3-fluoropyridin-4-yl)amino]-3-(propan-2-yl)-3H-imidazo[4,5-c]pyridin-6-yl}-2-oxo-1-[(1S,3S)-3-(piperidin-1-yl)cyclobutyl]-1,2-dihydrospiro[indole-3,4′-piperidin]-1′-yl)carbonyl]piperidin-1-yl}-2-oxoethyl)piperazin-1-yl]pyridin-3-yl}piperidine-2,6-dione] was tested. Which DC50 did it give?
A: The DC50 was 100 to 500 nM.

Q: And the Dmax [1]?
A: Its Dmax is 70 to 85%.
